The values that follow come from PMC5198017, “The Influence of Solid Microneedles on the Transdermal Delivery of Selected Antiepileptic Drugs” (Pharmaceutics, 2016).

Counter-ions that a name gives are not always drawn. Like-named read-outs stand apart in the source and are kept apart here.

Data set [1] in a line: In vitro diffusion studies with vertical Franz diffusion cells across untreated and microneedle-treated skin. The format is in vitro ADME, pig. Particulars: for Transdermal flux, Microneedle: 500 μm microneedle roller-treated porcine ear skin; for Transdermal flux, Microneedle / Transdermal flux, Passive: 12 h, ± SD, n = 6; for Transdermal flux, Passive: untreated porcine ear skin; for Statistical significance of difference in flux, untreated versus microneedle-treated skin: porcine skin, carbamazepine as 20% and 30% ethanol solutions, p < 0.05 considered significant. As to the method: Pig ears were purchased from Pel-Freez Arkansas LLC (Rogers, AR, USA). Upon arrival, ears were shaved with an electric hair clipper. Full-thickness skins were obtained by using a scalpel to remove subcutaneous fat from ear cartilage. An electric dermatome (Nouvag®, Goldach, Switzerland) was used to prepare split-thickness skins. The thickness of the skin samples was determined with the Digimatic micrometer (Mitutoyo, Tokyo, Japan). Skin membranes were wrapped in aluminum foil and stored at -20 °C until ready for use. Experiments were approved by the Institutional Animal Care and Use Committee (IACUC) and Institutional Biosafety Committee (IBC) of Touro University, Mare Island-Vallejo, CA, USA. Microchannels were created on porcine skins using solid microneedle rollers and skin samples were then clamped to the diffusion cells. The roller was applied to the pig ear skin 15 times (five times in the vertical, horizontal and diagonal directions). The roller was applied with a force of 5 kg (measured with a weighing balance) for approximately 1 min per application. Three microneedle-treated split-thickness skin (STS) samples were used for the experiment while three untreated skin samples served as controls. […] The drug was placed on porcine skin. The pig skin was sandwiched between the donor and receptor compartments of Franz diffusion cells. The donor compartment and covered with parafilm and aluminum foil to reduce evaporation. The sampling ports were also sealed. […] Extractions were stored in 2 mL amber vials from Agilent Technologies (Agilent, Santa Clara, CA, USA) and stored at -8 °C until shipment to the University of Idaho for analysis. Receptor chambers were replenished after each extraction with 1 mL of fresh, pre-warmed PBS maintained at 37 °C. We carried out in vitro diffusion studies with six vertical Franz Diffusion cells (PermeGear, Hellertown, PA, USA). Each cell has donor compartments and receptor compartments. In each cell, there is a magnetic stirrer, sampling port, and a water jacket maintained at a 37 °C model human body temperature. The receptor compartment has a diffusion area of 1.77 cm^2 and the volume is 12 mL. The receptor compartment was filled with PBS, and we utilized high-vacuum grease (Dow Corning, Midland, MA, USA) and a metal clamp to prevent loss of the drug solution through lateral diffusion. HPLC analysis was performed using an Agilent 1200 Series HPLC system with a diode array detection (DAD) system coupled to an Agilent […] TOF-MS system equipped with an ESI source (Agilent, Santa Clara, CA, USA). […] The injection volume was 5 μL. The mobile phase comprised of 0.1% formic acid in water (solvent A) and 0.1% formic acid in methanol (solvent B). We first used a linear gradient from 15% to 95% B in 7 min, and then isocratic elution was carried out at 95% B for 2 min. The final equilibration was conducted at 15% B for 5 min. We diverted the flow from the mass spectrometer for the first 3 min of the analysis, in order to prevent MS contamination and ion suppression. The flow rate was 0.3 mL·min^-1. The average cumulative amount of drug permeation through porcine skin was plotted as a function of time. Steady-state flux was calculated from the linear portion of the average cumulative amount versus time curve. Six replicates were utilized for each drug. […] (1) […] Statistical analysis was performed using GraphPad Prism 7 (GraphPad Software, Inc., La Jolla, CA, USA). The Mann-Whitney Rank Sum test was carried out to determine statistical significance. […] The average of replicate measurements (n = 6) with corresponding standard deviation was used to plot the graphs.

For data set [2] the following is noted: cited from earlier work.
For data set [3] the following is noted: cited from earlier work. The source holds these as a separate data set.
For data set [4] the following is noted: cited from earlier work. This is another data set of the same source.
On the set-up of data set [5]: method as in PMID 23454133. Particulars: after application of nanostructured lipid carriers; cited from earlier work.
The mark [6] stands for this setting: carbamazepine 1 mg/mL in 20% ethanol/PBS, listed as Carbamazepine in 20% ethanol.
[7] abbreviates: carbamazepine 1 mg/mL in 30% ethanol/PBS.
Where [8] appears, read: tiagabine hydrochloride 5 mg/mL in PBS.

In the case of `NC(=O)N1c2ccccc2C=Cc2ccccc21` [Carbamazepine, carbamazepine], in data set [1] (setting [6]), the “Transdermal flux, Microneedle” value is on record as 10.85 ± 0.11 µg/cm^2/h and the “Transdermal flux, Passive” value is 7.85 ± 0.60 µg/cm^2/h. Further, in data set [1] (setting [7]), the “Transdermal flux, Microneedle” value was 36.73 ± 1.83 µg/cm^2/h and the “Transdermal flux, Passive” value is on record as 30.74 ± 1.32 µg/cm^2/h. Also, in data set [1], the “Statistical significance of difference in flux, untreated versus microneedle-treated skin” value is “not statistically significant”. The Aqueous solubility in data set [2] (at 32 °C in phosphate buffer saline of pH 7.4) was 440.6 ± 20.6 µg/mL. Further, the Partition coefficient in data set [3] is listed as 2.7 ± 0.3. Besides, in data set [4], the Clearance is on record as 0.112 ± 0.0147 L/h/kg and the “Excreted in urine unchanged” value is given as 1%.
With `Cc1ccsc1C(=CCCN1CCC[C@@H](C(=O)O)C1)c1sccc1C` [Tiagabine hydrochloride, tiagabine hydrochloride], the “Statistical significance of difference in flux, untreated versus microneedle-treated skin” value in data set [1] is given as “statistically significant”. In data set [1] (setting [8]), the “Transdermal flux, Microneedle” value was found to be 86.42 ± 25.66 µg/cm^2/h and the “Transdermal flux, Passive” value is 12.83 ± 6.30 µg/cm^2/h. The “Flux Increase” value in data set [1] (tiagabine hydrochloride in PBS, microneedle versus passive) stood at 6.74 fold. In data set [2] (tiagabine hydrochloride), the Aqueous solubility was 10000 µg/mL. Besides, the Partition coefficient in data set [3] (tiagabine hydrochloride) was 2.6. Besides, in data set [4] (after drug administration), the “Blood–brain barrier passage” value is listed as “readily cross the blood–brain barrier”. Further, in data set [4], the “Unchanged when excreted as urine” value is recorded as “less than 1%” and the Volume of distribution is 1 L/kg.
`Cc1cc2c(s1)Nc1ccccc1N=C2N1CCN(C)CC1` [olanzapine]: the Transdermal flux enhancement result in data set [5] is “did not observe significant transdermal flux enhancement”.

The Aqueous solubility is the concentration that dissolves in the medium under given conditions.
